Assay results published in ChEMBL document CHEMBL3885861, “Open TG-GATES”.

Species on record: Rattus norvegicus
Assay: Open TG-GATES - Regimen: Single
Assay type: toxicity, organism-based, Sprague-Dawley
Set-up: regimen Single, gender Male, age 6 weeks
Conditions: in vivo, po, route gavage; for APTT / Bas / Eos / Fbg / Hb / Ht / Lym / MCH / MCHC / MCV / Mono / Neu / PT / Plat / RBC / Ret / WBC: tissue Blood; for KIDNEY_L / KIDNEY_R / KIDNEY_TOTAL: tissue Kidney; for LIVER: tissue Liver; for A/G / ALP / ALT / AST / BUN / CRE / Ca / Cl / DBIL / GLC / IP / K / LDH / Na / PL / RALB / TBIL / TC / TG / TP / gamma-GTP: tissue Plasma
[1] = 100 mg/kg, 3 h, dose level Middle
[2] = 100 mg/kg, 6 h, dose level Middle
[3] = 100 mg/kg, 9 h, dose level Middle
[4] = 100 mg/kg, 24 h, dose level Middle
[5] = 300 mg/kg, 3 h, dose level High
[6] = 300 mg/kg, 6 h, dose level High
[7] = 300 mg/kg, 9 h, dose level High
[8] = 300 mg/kg, 24 h, dose level High

## CCOC(=O)C(C)(C)Oc1ccc(Cl)cc1 [CLOFIBRATE]
[1]
  TERMINAL_BW: 227.5 g
  APTT: 18.9 s
  Bas: 0%
  Eos: 1%
  Fbg: 231.4 mg/dL
  Hb: 13.6 g/dL
  Ht: 39%
  Lym: 76.6%
  MCH: 20.9 pg
  MCHC: 34.8%
  MCV: 60.1 fL
  Mono: 2.6%
  Neu: 19.2%
  PT: 12.3 s
  Plat: 126.5 x10_4/uL
  RBC: 649.6 x10_4/ul
  Ret: 7.1%
  WBC: 87.8 x10_2/uL
  KIDNEY_L: 1 g
  KIDNEY_R: 1 g
  KIDNEY_TOTAL: 1.9 g
  LIVER: 9.9 g
  A/G: 1.6
  ALP: 1012.4 IU/L
  ALT: 36.8 IU/L
  AST: 68.2 IU/L
  BUN: 10 mg/dL
  CRE: 0.3 mg/dL
  Ca: 10.7 mg/dL
  Cl: 102.6 meq/L
  DBIL: 0.2 mg/dL
  GLC: 201.6 mg/dL
  IP: 9 mg/dL
  K: 3.8 meq/L
  LDH: 203.6 IU/L
  Na: 139.6 meq/L
  PL: 157.6 mg/dL
  RALB: 3.5 g/dL
  TBIL: 0.3 mg/dL
  TC: 75.2 mg/dL
  TG: 121 mg/dL
  TP: 5.7 g/dL
  gamma-GTP: 0.4 IU/L
[2]
  TERMINAL_BW: 227.2 g
  APTT: 18.9 s
  Bas: 0%
  Eos: 1%
  Fbg: 232.6 mg/dL
  Hb: 13.7 g/dL
  Ht: 39.5%
  Lym: 79.6%
  MCH: 20.8 pg
  MCHC: 34.6%
  MCV: 60.1 fL
  Mono: 3.2%
  Neu: 16%
  PT: 12.5 s
  Plat: 132.6 x10_4/uL
  RBC: 657.6 x10_4/ul
  Ret: 7.3%
  WBC: 89.7 x10_2/uL
  KIDNEY_L: 1 g
  KIDNEY_R: 1 g
  KIDNEY_TOTAL: 2 g
  LIVER: 10.1 g
  A/G: 1.6
  ALP: 987.8 IU/L
  ALT: 29.8 IU/L
  AST: 62.8 IU/L
  BUN: 9.2 mg/dL
  CRE: 0.4 mg/dL
  Ca: 10.9 mg/dL
  Cl: 102.4 meq/L
  DBIL: 0.1 mg/dL
  GLC: 196.2 mg/dL
  IP: 9.4 mg/dL
  K: 4.2 meq/L
  LDH: 223.6 IU/L
  Na: 139 meq/L
  PL: 146.8 mg/dL
  RALB: 3.5 g/dL
  TBIL: 0.2 mg/dL
  TC: 73.8 mg/dL
  TG: 106.4 mg/dL
  TP: 5.7 g/dL
  gamma-GTP: 0.6 IU/L
[3]
  TERMINAL_BW: 222.9 g
  APTT: 17.6 s
  Bas: 0%
  Eos: 1%
  Fbg: 227.4 mg/dL
  Hb: 13.3 g/dL
  Ht: 38.2%
  Lym: 80.2%
  MCH: 21 pg
  MCHC: 34.8%
  MCV: 60.5 fL
  Mono: 1.8%
  Neu: 16.6%
  PT: 12.9 s
  Plat: 137.6 x10_4/uL
  RBC: 630.2 x10_4/ul
  Ret: 7.4%
  WBC: 82.1 x10_2/uL
  KIDNEY_L: 1 g
  KIDNEY_R: 1 g
  KIDNEY_TOTAL: 2.1 g
  LIVER: 9.6 g
  A/G: 1.6
  ALP: 1028.4 IU/L
  ALT: 26.6 IU/L
  AST: 59.4 IU/L
  BUN: 9.8 mg/dL
  CRE: 0.4 mg/dL
  Ca: 10.4 mg/dL
  Cl: 101.4 meq/L
  DBIL: 0.088 mg/dL
  GLC: 206.4 mg/dL
  IP: 10.3 mg/dL
  K: 3.5 meq/L
  LDH: 182.4 IU/L
  Na: 140.2 meq/L
  PL: 120.4 mg/dL
  RALB: 3.4 g/dL
  TBIL: 0.1 mg/dL
  TC: 59.4 mg/dL
  TG: 73 mg/dL
  TP: 5.6 g/dL
  gamma-GTP: 0.6 IU/L
[4]
  TERMINAL_BW: 236 g
  APTT: 19.1 s
  Bas: 0%
  Eos: 1%
  Fbg: 223.8 mg/dL
  Hb: 13.6 g/dL
  Ht: 38.9%
  Lym: 79.8%
  MCH: 21.4 pg
  MCHC: 34.9%
  MCV: 61.4 fL
  Mono: 3.2%
  Neu: 15.4%
  PT: 12.6 s
  Plat: 131 x10_4/uL
  RBC: 633.6 x10_4/ul
  Ret: 7%
  WBC: 93.4 x10_2/uL
  KIDNEY_L: 1 g
  KIDNEY_R: 1 g
  KIDNEY_TOTAL: 2 g
  LIVER: 12 g
  A/G: 1.6
  ALP: 871 IU/L
  ALT: 36 IU/L
  AST: 65.6 IU/L
  BUN: 14.8 mg/dL
  CRE: 0.4 mg/dL
  Ca: 10.9 mg/dL
  Cl: 100.8 meq/L
  DBIL: 0.088 mg/dL
  GLC: 202 mg/dL
  IP: 7.5 mg/dL
  K: 3.7 meq/L
  LDH: 219.2 IU/L
  Na: 139.6 meq/L
  PL: 134.2 mg/dL
  RALB: 3.4 g/dL
  TBIL: 0.1 mg/dL
  TC: 60.4 mg/dL
  TG: 106.4 mg/dL
  TP: 5.6 g/dL
  gamma-GTP: 1 IU/L
[5]
  TERMINAL_BW: 225.9 g
  APTT: 19.5 s
  Bas: 0%
  Eos: 1%
  Fbg: 231.2 mg/dL
  Hb: 13.5 g/dL
  Ht: 39.3%
  Lym: 78%
  MCH: 21.4 pg
  MCHC: 34.2%
  MCV: 62.5 fL
  Mono: 3%
  Neu: 17.2%
  PT: 12.5 s
  Plat: 127.2 x10_4/uL
  RBC: 629.6 x10_4/ul
  Ret: 7.9%
  WBC: 103.9 x10_2/uL
  KIDNEY_L: 1 g
  KIDNEY_R: 1 g
  KIDNEY_TOTAL: 2 g
  LIVER: 9.8 g
  A/G: 1.6
  ALP: 991.6 IU/L
  ALT: 41.8 IU/L
  AST: 73.2 IU/L
  BUN: 10.4 mg/dL
  CRE: 0.4 mg/dL
  Ca: 11 mg/dL
  Cl: 102.4 meq/L
  DBIL: 0.1 mg/dL
  GLC: 190 mg/dL
  IP: 9.4 mg/dL
  K: 3.6 meq/L
  LDH: 260.6 IU/L
  Na: 140.4 meq/L
  PL: 149.6 mg/dL
  RALB: 3.5 g/dL
  TBIL: 0.2 mg/dL
  TC: 73 mg/dL
  TG: 76.2 mg/dL
  TP: 5.6 g/dL
  gamma-GTP: 0.6 IU/L
[6]
  TERMINAL_BW: 227.7 g
  APTT: 18.2 s
  Bas: 0%
  Eos: 1%
  Fbg: 240.8 mg/dL
  Hb: 13.4 g/dL
  Ht: 38.8%
  Lym: 76.4%
  MCH: 21.1 pg
  MCHC: 34.5%
  MCV: 61.3 fL
  Mono: 3.2%
  Neu: 18.4%
  PT: 12.7 s
  Plat: 134.1 x10_4/uL
  RBC: 633.8 x10_4/ul
  Ret: 7.4%
  WBC: 83.7 x10_2/uL
  KIDNEY_L: 1 g
  KIDNEY_R: 1 g
  KIDNEY_TOTAL: 2 g
  LIVER: 9.5 g
  A/G: 1.6
  ALP: 1008 IU/L
  ALT: 35.8 IU/L
  AST: 74.4 IU/L
  BUN: 10.2 mg/dL
  CRE: 0.4 mg/dL
  Ca: 10.9 mg/dL
  Cl: 102.8 meq/L
  DBIL: 0.09 mg/dL
  GLC: 195.6 mg/dL
  IP: 9.5 mg/dL
  K: 4 meq/L
  LDH: 218.8 IU/L
  Na: 140.4 meq/L
  PL: 135 mg/dL
  RALB: 3.5 g/dL
  TBIL: 0.2 mg/dL
  TC: 71 mg/dL
  TG: 96.2 mg/dL
  TP: 5.7 g/dL
  gamma-GTP: 1.2 IU/L
[7]
  TERMINAL_BW: 229.4 g
  APTT: 18 s
  Bas: 0%
  Eos: 1%
  Fbg: 235.6 mg/dL
  Hb: 13.1 g/dL
  Ht: 38.1%
  Lym: 72.8%
  MCH: 21 pg
  MCHC: 34.5%
  MCV: 61 fL
  Mono: 2.8%
  Neu: 22.8%
  PT: 12.9 s
  Plat: 140.4 x10_4/uL
  RBC: 625.6 x10_4/ul
  Ret: 7.1%
  WBC: 69.9 x10_2/uL
  KIDNEY_L: 1 g
  KIDNEY_R: 1 g
  KIDNEY_TOTAL: 2 g
  LIVER: 9.4 g
  A/G: 1.5
  ALP: 1054.2 IU/L
  ALT: 33 IU/L
  AST: 70.4 IU/L
  BUN: 10.8 mg/dL
  CRE: 0.4 mg/dL
  Ca: 10.5 mg/dL
  Cl: 102.4 meq/L
  DBIL: 0.09 mg/dL
  GLC: 201 mg/dL
  IP: 10.3 mg/dL
  K: 3.7 meq/L
  LDH: 203.6 IU/L
  Na: 140.4 meq/L
  PL: 116 mg/dL
  RALB: 3.3 g/dL
  TBIL: 0.1 mg/dL
  TC: 53.8 mg/dL
  TG: 81.8 mg/dL
  TP: 5.5 g/dL
  gamma-GTP: 1 IU/L
[8]
  TERMINAL_BW: 236.8 g
  APTT: 19.3 s
  Bas: 0%
  Eos: 0.8%
  Fbg: 218.2 mg/dL
  Hb: 13.5 g/dL
  Ht: 38.6%
  Lym: 77.2%
  MCH: 21.2 pg
  MCHC: 34.9%
  MCV: 60.7 fL
  Mono: 4%
  Neu: 17.6%
  PT: 13.3 s
  Plat: 127.2 x10_4/uL
  RBC: 636.8 x10_4/ul
  Ret: 6.4%
  WBC: 102.9 x10_2/uL
  KIDNEY_L: 1 g
  KIDNEY_R: 1.1 g
  KIDNEY_TOTAL: 2.1 g
  LIVER: 12.3 g
  A/G: 1.7
  ALP: 1007.8 IU/L
  ALT: 38 IU/L
  AST: 79 IU/L
  BUN: 15.4 mg/dL
  CRE: 0.4 mg/dL
  Ca: 10.6 mg/dL
  Cl: 100.4 meq/L
  DBIL: 0.086 mg/dL
  GLC: 201.2 mg/dL
  IP: 7.5 mg/dL
  K: 3.8 meq/L
  LDH: 223.4 IU/L
  Na: 140 meq/L
  PL: 104.8 mg/dL
  RALB: 3.5 g/dL
  TBIL: 0.1 mg/dL
  TC: 43.6 mg/dL
  TG: 103.8 mg/dL
  TP: 5.5 g/dL
  gamma-GTP: 1.4 IU/L
